Reference: patent US6525045B2, “Positive allosteric AMPA receptor modulators” (Boehringer Ingelheim Pharma KG, priority 2000, dated 2003)

System: AMPA receptors
Test: Electrophysiological measurement of intensification of the agonist-induced current on cells expressing functional AMPA receptors
Format: cell-based
Set-up: key: + good; ++ very good activity
Conditions: concentrations between 0.3 μmol and 300 μmol
Experimental: Particular mention should be made of those applications in which the positive modulation of AMPA receptors plays a part. The effect of the compounds according to the invention as AMPA receptor modulators was measured electrophysiologically on cells which express functional AMPA receptors. Investigations were carried out to see whether the test substances have a positive allosteric influence on the agonist-induced current.
The test was carried out at concentrations of between 0.3 μmol and 300 μmol.

| Compound | Effectiveness: Intensification of the agonist-induced current |
| --- | --- |
| CN1Cc2cccc3scc(c23)S1(=O)=O [Example 1, 4-methyl-4,5-dihydro-1,3-dithia-4-aza-acenaphthylene 3,3-dioxide] | ++ |
| CCN1Cc2cccc3scc(c23)S1(=O)=O [Example 2, 4-ethyl-4.5-dihydro-1,3-dithia-4-aza-acenaphthylene 3,3-dioxide] | + |
| CN1Cc2c(F)ccc3scc(c23)S1(=O)=O [Example 4, 6-fluoro-4-methyl-4,5-dihydro-1,3-dithia-4-aza-acenaphthylene 3,3-dioxide] | ++ |
| 6-chloro-4-methyl-4,5-dihydro-1.3-dithia-4-aza-acenaphthylene 3.3-dioxide [Example 5] | + |
| CN1Cc2ccc(Cl)c3scc(c23)S1(=O)=O [Example 3, 8-chloro-4-methyl-4,5-dihydro-1,3-dithia-4-aza-acenaphthylene 3,3-dioxide] | + |

System: not given
Test: not given
Conditions: not given

| Compound | melting point |
| --- | --- |
| CN1Cc2c(Br)ccc3scc(c23)S1(=O)=O [Example 11, 6-bromo-4-methyl-4,5-dihydro-1,3-dithia-4-aza-acenaphthylene-3,3-dioxide] | 203 °C |
| CN1Cc2c(C#N)ccc3scc(c23)S1(=O)=O [Example 16, 4-methyl-3,3-dioxo-4,5-dihydro-3H-1,3-dithia-4-aza-acenaphthylene-6-carbonitrile] | 238 °C |
